Reference: patent US20250122539A1, “LARGE SCALE PRODUCTION OF DIVARIN, DIVARINIC ACID AND OTHER ALKYL RESORCINOLS BY FERMENTATION” (priority 2021, published 2025)

Tests used:
S. cerevisiae = experiment: Toxicity of organic phase (overlay/underlay) compounds to growth of the host strain; conditions: for toxicity to growth: compound as organic phase
From the text: In-situ liquid-liquid extraction (biphasic fermentation) is a strategy that can be employed in accordance with the present invention for physical separation of product from microorganisms via partitioning into the water immiscible organic liquid phase from an aqueous culture phase. The organic liquid phase or organic phase is present as either an overlay if its density is less than that of the aqueous phase, or an underlay if its density is greater than that of the aqueous phase. Certain properties of the overlay or underlay are considered for production of olivetolic acid/olivetol and other resorcinols such as of formulas IA and IB: (1) non-toxic or low toxicity for growth of the host strain, and/or (2) a favorable partitioning coefficient of the product in the organic phase vs. the aqueous phase, and/or (3) preferably a lower partition coefficient for fed hexanoic acid (for olivetolic acid/olivetol) or other fatty acid such as RCO2H (for other resorcinols) in the organic phase vs. the aqueous phase. Additional properties of the organic phase enhance its suitability for downstream conversion, e.g. and without limitation, to cannabigerol and other cannabinoid compounds, including suitability as a solvent or co-solvent during downstream prenylation or other reactions, and boiling point if downstream separation by distillation is employed.

hexanoic acid = experiment: Two plasmid screening system for relative AAE activity, hexanoic acid feeding; assay type: cell-based, Saccharomyces cerevisiae; conditions: for Olivetol / Olivetolic acid: average production, LSC3-297/pLOA-049 plus AAE plasmid, Delft medium pH 6.5, 3.44 mM hexanoic acid, 48 hours
From the text: (§1) In order to perform in vivo screening in Saccharomyces cerevisiae for acyl activating enzyme (AAE) variants with enhanced activity and/or expression, a two plasmid screening system was employed to generate an artificial bottleneck in AAE activity. This bottleneck was generated by natural copy number variation of the two plasmids, with a multi-copy 2 micron episomal plasmid, pLOA-049, harboring an olivetol synthase homologue from C. sativa (CsTKS) fused with a T2A self-cleaving peptide (Kearsey et al., FEBS J. 287:1511-1524, 2020) to a gene encoding olivetol acid cyclase from C. sativa (CsOAC), and a lower copy centromeric plasmid with an autonomous replicating sequence (CEN/ARS) harboring different acyl activating enzymes/acyl-CoA synthetases from different organisms. Markers employed on the 2 micron plasmid were orotidine-5′-phosphate decarboxylase from S. cerevisiae (URA3) and on the CEN/ARS plasmid, the multifunctional histidine biosynthesis gene HIS4 from S. cerevisiae. The cassette architecture in the plasmids was based on integrated cassettes in production strain LSC3-2, with a pGAL1-10 bidirectional promoter driving expression of CsTKS and CsOAC from pGAL1 with a S. cerevisiae CYC1 terminator, and insulated downstream of pGAL10 by a S. cerevisiae GRE3 terminator. Likewise on the CEN/ARS plasmid, a bidirectional pGAL1-10 promoter drives expression of CsAAE1 from pGAL10 with a S. cerevisiae GRE3 terminator, and is insulated downstream of pGAL1 by a S. cerevisiae CYC1 terminator.
(§2) To screen activity of AAE variants, first a CEN/ARS containing plasmid expressing AAEs co-transformed with the 2 micron plasmid expressing CsTKS translationally fused to CsOAC via the T2A self-cleaving peptide into strain LSC3-297 using the transformation method described by Gietz and Schiestl (Nat. Protocols 2:31-34, 2007). Double plasmid transformants were selected on YNB agar with 2% (w/v) glucose and CSM minus histidine and minus uracil (CSM-His-Ura, Sunrise Science Products) and grown in a 30° C. incubator for approximately 48 hours or at room temperature for approximately 72 hours. Individual colonies were picked into wells of 96 deepwell plates containing 0.3 mL per well of Delft medium with 2% (w/v) glucose and 0.75 g/L CSM-His-Ura. Delft medium base contains (per liter solution) 7.5 g ammonium sulfate, 14.4 g potassium phosphate monobasic (added from a 1 M stock solution adjusted to pH 6.5 with sodium hydroxide), 0.5 g magnesium sulfate heptahydrate, 3.6 mL of a trace metal solution (consisting of 130 g/L citric acid monohydrate, 0.574 g/L copper (II) sulfate pentahydrate, 8.07 g/L iron (III) chloride hexahydrate, 0.5 g/L boric acid, 0.333 g/L manganese (II) chloride, 0.2 g/L sodium molybdate, and 4.67 g/L zinc sulfate heptahydrate), and 1.0 ml of a vitamin solution (0.008 g/L biotin, 1.6 g/L calcium pantothenate, 0.008 g/L folic acid, 8 g/L myo-inositol, 1.6 g/L nicotinic acid, 0.8 g/L p-aminobenzoic acid, 1.6 g/L pyridoxal hydrochloride, 0.8 g/L riboflavin, 1.6 g/L thiamine hydrochloride, adjusted to pH […] with sodium hydroxide). Plates were grown for 16-24 hours at 30° C. in a plate shaker incubator maintained at 80% relative humidity and 900 rpm shaking (3 mm diameter throw). Ten microliters of preculture was then used to inoculate wells of 96 deepwell plates containing 0.3 mL per well of Delft medium with 2% (w/v) glucose, 0.75 g/L CSM-His-Ura, either 9.08 mM butyric acid or 3.44 mM hexanoic acid, and for divarin/divarinic acid, additionally 150 mM 2-(N-morpholino) ethanesulfonic acid (MES) at pH 5.5 and with the additional modification of the 1 M potassium phosphate monobasic stock in the Delft medium base also adjusted to pH 5.5 (for olivetol/olivetolic acid production from hexanoic acid, no MES was added and potassium phosphate monobasic solution used in the Delft medium base was at pH 6.5). […]

butyric acid = experiment: Two plasmid screening system for relative AAE activity, butyric acid feeding; assay type: cell-based, Saccharomyces cerevisiae; conditions: for Divarin / Divarinic acid: average production, LSC3-297/pLOA-049 plus AAE plasmid, Delft medium pH 5.5 with 150 mM MES, 9.08 mM butyric acid, 48 hours
From the text: as §1, §2

Molecule | toxicity to growth (S. cerevisiae; under the test conditions) | further results
2,2,4-trimethyl-1,3-pentanediol monoisobutyrate [Texanol] | inhibitory to growth | –
CCCCCCCCCCO [Decanol] | toxic to growth | –
CCCCOC(=O)CCCCCCCCC(=O)OCCCC [Dibutyl sebacate] | completely non-inhibitory to growth | –
CCCCCCCCCCCCCC(=O)OC(C)C [IPM, isopropyl myristate] | non-toxic | –
CCCCCCCC(=O)OC(C)C [Isopropyl octanoate] | moderately inhibitory but allowed for some growth | –
CCCCCCCC(=O)OCC(COC(=O)CCCCCCC)OC(=O)CCCCCCC [Tricaprylin] | fairly toxic, however allowed some growth of strains | –
CCCCCCCCCCCC(=O)OCCCC [butyl laurate] | non-toxic | –
CC(C)(C)OC(=O)CC(=O)OC(C)(C)C [di-tert-butyl malonate] | – | toxicity toward growth of mixtures (S. cerevisiae; 1-10% (v/v), particularly 1-2.5% (v/v), in IPM and isopar M): much lower toxicity; toxicity to growth (S. cerevisiae; with galactose addition): appearing toxic or to induce substantial lag; toxicity to growth (S. cerevisiae; with glucose addition): supported growth of all strains
CCCCOC(=O)CCCCC(=O)OCCCC [dibutyl adipate] | no apparent toxicity | –
CCOC(=O)C(CC)(CC)C(=O)OCC [diethyl diethylmalonate] | – | toxicity to growth (S. cerevisiae; with galactose addition): substantial lag; toxicity to growth (S. cerevisiae; with glucose addition): modest growth by most strains
CCOC(=O)CCCCCCCCC(=O)OCC [diethyl sebacate] | moderately growth inhibitory | toxicity to growth (S. cerevisiae; with galactose addition): substantial lag; toxicity to growth (S. cerevisiae; with glucose addition): modest growth by most strains
CC(C)OC(=O)CCCCC(=O)OC(C)C [diisopropyl adipate] | Growth was observed | –
CCCCCCCCCCCC [dodecane] | Lack of toxicity | –
CCCCCCCCCC(=O)OCC [ethyl decanoate] | increasingly non-toxic | –
CCCCCCCCCCCC(=O)OCC [ethyl laurate] | non-toxic | –
CCCCCCCCCCCCCC(=O)OCC [ethyl myristate] | non-toxic | –
CCCCCCCCCCCCCCCC [hexadecane] | Lack of toxicity | –
CCCCCCOC(=O)CCCCC [hexyl hexanoate] | moderately non-toxic | –
CCCCCCCCCC(=O)OC [methyl decanoate] | moderately inhibitory to growth but still allowed for growth | –
CCCCCCCCCCCCCC(=O)OC [methyl myristate] | non-toxic | –
CCCCCCCCOC(C)=O [octyl acetate] | toxic | –
CCCCCCCC/C=C\CCCCCCCCO [oleyl alcohol] | supported robust growth | –
CCCCCCCCCCCCCC [tetradecane] | Lack of toxicity | –
CsAAE1: Cannabis sativa acyl activating enzyme 1 (SEQ ID NO: 4), codon-optimized for S. cerevisiae, on plasmid pLOA-059 (protein, listed as Cannabis sativa) MGKNYKSLDSVVASDFIALGITSEVAETLHGRLAEIVCNYGAATPQTWINIANHILSPDLPFSLHQMLFYGCYKDFGPAPPAWIPDPEKVKSTNLGALLEKRGKEFLGVKYKDPISSFSHFQEFSVRNPEVYWRTVLMDEMKISFSKDPECILRRDDINNPGGSEWLPGGYLNSAKNCLNVNSNKKLNDTMIVWRDEGNDDLPLNKLTLDQLRKRVWLVGYALEEMGLEKGCAIAIDMPMHVDAVVIYLAIVLAGYVVVSIADSFSAPEISTRLRLSKAKAIFTQDHIIRGKKRIPLYSRVVEAKSPMAIVIPCSGSNIGAELRDGDISWDYFLERAKEFKNCEFTAREQPVDAYTNILFSSGTTGEPKAIPWTQATPLKAAADGWSHLDIRKGDVIVWPTNLGWMMGPWLVYASLLNGASIALYNGSPLVSGFAKFVQDAKVTMLGVVPSIVRSWKSTNCVSGYDWSTIRCFSSSGEASNVDEYLWLMGRANYKPVIEMCGGTEIGGAFSAGSFLQAQSLSSFSSQCMGCTLYILDKNGYPMPKNKPGIGELALGPVMFGASKTLLNGNHHDVYFKGMPTLNGEVLRRHGDIFELTSNGYYHAHGRADDTMNIGGIKISSIEIERVCNEVDDRVFETTAIGVPPLGGGPEQLVIFFVLKDSNDTTIDLNQLRLSFNLGLQKKLNPLFKVTRVVPLSSLPRTATNKIMRRVLRQQFSHFE | – | Olivetol (hexanoic acid): 2.61 mg/L; Olivetolic acid (hexanoic acid): 2.99 mg/L; activity as a hexanoyl-CoA synthetase for olivetol and olivetolic acid production (hexanoic acid; out of the tested AAE sequences): highest activity; Divarin (butyric acid): 1.58 mg/L; Divarinic acid (butyric acid): 1.51 mg/L
AtAAE7: acyl activating enzyme 7 from Arabidopsis thaliana (Uniprot Q8VZF1), C-terminal peroxisomal targeting sequence removed, SEQ ID NO: 9 (protein, listed as Arabidopsis thaliana) MAATKWRDIDDLPKIPANYTALTPLWFLDRAAVVHPTRKSVIHGSREYTWRQTYDRCRRLASALADRSIGPGSTVAIIAPNIPAMYEAHFGVPMCGAVLNCVNIRLNAPTVAFLLSHSQSSVIMVDQEFFTLAEDSLRLMEEKAGSSFKRPLLIVIGDHTCAPESLNRALSKGAIEYEDFLATGDPNYPWQPPADEWQSIALGYTSGTTASPKGVVLHHRGAYIMALSNPLIWGMQDGAVYLWTLPMFHCNGWCFPWSLAVLSGTSICLRQVTAKEVYSMIAKYKVTHFCAAPVVLNAIVNAPKEDTILPLPHTVHVMTAGAAPPPSVLFSMNQKGFRVAHTYGLSETYGPSTVCAWKPEWDSLPPETQAKLNARQGVRYTGMEQLDVIDTQTGKPVPADGKTAGEIVFRGNMVMKGYLKNPEANKETFAGGWFHSGDIAVKHPDNYIEIKDRSKDVIISGGENISSVEVENVVYHHPAVLEASVVARPDERWQESPCAFVTLKSDYEKHDQNKLAQDIMKFCREKLPAYWVPKSVVFGPLPKTATGKIQKHILRTKAKEMGPVPR | – | Olivetol (hexanoic acid): 0.74 mg/L; Olivetolic acid (hexanoic acid): 1.60 mg/L; Divarin (butyric acid): 7.18 mg/L; Divarinic acid (butyric acid): 5.63 mg/L; activity as butyryl-CoA synthetases for divarin and divarinic acid production (butyric acid; over CsAAE1): several-fold activity improvements
